Read-outs that look alike come from different tables or passages of the source.

Assay [1] relates to lymphoblasts from G2019S LRRK2 PD patients. As to conditions: for Centrosomal cohesion deficits: three lymphoblast lines from G2019S LRRK2 PD patients, short-term application of LRRK2 kinase inhibitor, Figure 1A; for reversal of the cohesion deficit: five G2019S LRRK2 PD patients, dose-response.
Text: Peripheral blood mononuclear cells (PBMCs) were collected and processed according to manufacturer's instructions, and lymphocytes were immortalized by infection with Epstein-Barr virus (EBV) as described. Briefly, cell lines were established from freshly isolated or cryopreserved lymphocytes using standard EBV transformation protocols which include cell separation by gradient centrifugation and lymphocyte growth enhancement by 1% (v/v) of the mitogenic phytohemagglutinin-M (PHA-M, ThermoFisher Scientific, 10576015). Cell lines were maintained in RPMI 1640 medium supplemented with 20 % fetal bovine serum, 2 % L-glutamine, 20 units/mL penicillin and 20 µg/ml streptomycin in T75 flasks in 5 % CO2 at 37 °C. Cells were maintained at a density of 10^6 cells/mL, with cell density monitored every other day using trypan blue staining.
Coverslips (13 mm diameter) were placed into 24-well plates and coated with Cell-Tak Cell and Tissue Adhesive solution (Corning, nr. 354240) according to manufacturer's instructions. After 20 minutes incubation at room temperature, the solution was removed, and coverslips were rinsed twice with distilled water followed by air-drying. Lymphoblast cells (200,000/well) were added to dry coated coverslips, and cells attached by slight centrifugation at 690 g for 10 minutes at room temperature (without brake). Cells were fixed with 2 % paraformaldehyde (PFA) in phosphate-buffered saline (PBS) for 20 minutes at room temperature, followed by 5 min of ice-cold methanol fixation before permeabilization with 0.2% Triton-X100/PBS for 20 min. After blocking for 1 hour in 0.5% BSA (w/v) in 0.2% Triton-X100/PBS (blocking buffer), cells were incubated with primary antibodies overnight at 4 °C in blocking buffer. Primary antibodies included mouse monoclonal anti-γ-tubulin (1:1000; Abcam ab11316), rabbit polyclonal anti-pericentrin (1:1000; Abcam ab4448) or rabbit monoclonal anti-phospho-Rab10 (1:100; Abcam ab237703). The following day, coverslips were washed three times 10 minutes in 0.2% Triton-X100/PBS, followed by incubation with secondary antibodies (Alexa488-conjugated goat anti-mouse (1:1000; Invitrogen) and Alexa594-conjugated goat anti-rabbit (1:1000; Invitrogen)) in blocking buffer for 1 hour. Coverslips were washed three times in 0.2% Triton-X100/PBS, rinsed in PBS and mounted in mounting medium with DAPI (Vector Laboratories). For staining with the anti-phospho-Rab10 antibody, the methanol fixation was omitted, and 0.2% Triton-X100 was replaced by 0.1% saponin throughout. For treatment of cells with MLi2, cells were seeded on coated coverslips as described above, and incubated with or without MLi2 (generous gift of D. Alessi, University of Dundee, UK) (or DMSO as control) at the indicated concentrations for two hours at 37 °C, before attachment by slight centrifugation followed by fixation as described above.
Images were acquired on a Leica TCS-SP5 confocal microscope using a 63X 1.4 NA oil UV objective (HCX PLAPO CS). Images were collected using single excitation for each wavelength separately, and dependent on secondary antibodies (488 nm Argon Laser line and a 498-551 nm emission band pass; 543 HeNe laser line and a 615-671 nm emission band pass; 405 nm UV diode and a 418-467 nm emission band pass). Around 30 image sections of selected areas were acquired with a step size of 0.5 µm, and z-stack images analyzed and processed using Leica Applied Systems (LAS AF6000) image acquisition software. The same laser intensity settings, exposure times and zoom were used for image acquisition of individual experiments to be quantified.
A further assay relates to sporadic PD lymphoblasts. The experiment in a line: Centrosomal cohesion deficit in lymphoblasts from sporadic PD patients (immunofluorescence, confocal imaging). The note with it: subset of sporadic PD patients with deficit (not G2019S carriers); short-term application of 10 nM MLi2; Figures 4A to 4D. The assay is classed as cell-based, human.

Text for sporadic PD lymphoblasts: Peripheral blood mononuclear cells (PBMCs) were collected and processed according to manufacturer's instructions, and lymphocytes were immortalized by infection with Epstein-Barr virus (EBV) as described. Briefly, cell lines were established from freshly isolated or cryopreserved lymphocytes using standard EBV transformation protocols which include cell separation by gradient centrifugation and lymphocyte growth enhancement by 1% (v/v) of the mitogenic phytohemagglutinin-M (PHA-M, ThermoFisher Scientific, 10576015). Cell lines were maintained in RPMI 1640 medium supplemented with 20 % fetal bovine serum, 2 % L-glutamine, 20 units/mL penicillin and 20 µg/ml streptomycin in T75 flasks in 5 % CO2 at 37 °C. Cells were maintained at a density of 10^6 cells/mL, with cell density monitored every other day using trypan blue staining. […]
Images were acquired on a Leica TCS-SP5 confocal microscope using a 63X 1.4 NA oil UV objective (HCX PLAPO CS). […] Around 30 image sections of selected areas were acquired with a step size of 0.5 µm, and z-stack images analyzed and processed using Leica Applied Systems (LAS AF6000) image acquisition software. The same laser intensity settings, exposure times and zoom were used for image acquisition of individual experiments to be quantified.

With `O=C(Nc1cccnc1)c1cc(-c2ccnc(F)c2)ccc1OCc1ccccc1` [GSK2578215A, 2-(benzyloxy)-5-(2-fluoropyridin-4-yl)-N-(pyridin-3-yl)benzamide], the Centrosomal cohesion deficits result in assay [1] is given as “could be reversed”.
As for `CC1CN(c2cc(-c3n[nH]c4ccc(OC5(C)CC5)cc34)ncn2)CC(C)O1` (centres unmarked) [MLi2, 3-(4-Pyrimidinyl) Indazole], the “reversal of the cohesion deficit” value in assay [1] (1 nM MLi2, Figures 3A and 3B) is listed as “significant reversal”; in assay [1] (10 nM MLi2, Figures 3A and 3B) it was “complete reversal”. The “Centrosomal deficits in all G2019S LRRK2 PD samples” value in assay [1] (larger sampling, individual samples, Figure 4C) is recorded as “reverted by MLi2 in all cases”. Further, the centrosomal alterations entry in assay [1] (larger sampling, short-term application of 10 nM MLi2, Figures 4A and 4B) was “reverted”. The results for the Centrosomal cohesion deficits entry (in assay [1]; with sporadic PD lymphoblasts) were “could be reversed” and “reverted”, respectively. Also, in assay [1] (washout of inhibitor, G2019S LRRK2 PD samples, Figures 3A and 3B), the “centrosomal cohesion deficits upon removal of kinase inhibitor” value is reported as “reverted back to the ones observed in the absence of inhibitor”.

Values taken from EP3769768A1, “COMPOUNDS USEFUL FOR THE TREATMENT OF PARKINSON S DISEASE” (priority 2019, dated 2021).
